In patent US20060171935A1, “Protecting cell therapy for neurological disorders including Parkinson's disease” (priority 2005, published 2006):
Positions count from the first letter of the chain named. In names and notes the source's numbering stands. Read-outs that look alike come from different tables or passages of the source. d = 2'-deoxy (DNA); r = 2'-OH (RNA)

Key:
[1] = system: primary culture midbrain dopamine neurons; experiment: Parkin siRNA in primary midbrain dopamine neuron cultures; assay type: cell-based, mice
Experimental: (§1) Cerebellar granule neurons from P6 mice were purified and transfected essentially as described (Scheiffele et al., Neuroligin expressed in nonneuronal cells triggers presynaptic development in contacting axons. Cell, 101:657-69, 2000). Dissociated cortical neurons from E16.5 mice were prepared and cultured as described (Scheiffele et al., Neuroligin expressed in nonneuronal cells triggers presynaptic development in contacting axons. Cell, 101:657-69, 2000). Primary midbrain cultures were prepared from E13.5 mouse embryos, as described (Hynes et al., Induction of midbrain dopaminergic neurons by Sonic hedgehog. Neuron, 15:35-44, 1995). Cells were treated for 24 h with or without kainate (250 or 500 μM as indicated; Sigma) or MPP^+ (1 or 10 μM as indicated; Sigma), stained for 20 min with 0.5 μg/ml Hoechst 33342 (Sigma), and visualized by fluorescence microscopy. For granule cell assays, at least 100 cells in two 20× fields were scored in duplicate for GFP and/or Hoechst signal. For immunohistochemistry, cell cultures were washed twice with PBS, and fixed for 20 min with 4% (w/v) paraformaldehyde. Cells were blocked for 1 h, at room temperature, with 3% (v/v) goat serum in PBS, and then incubated overnight, at 4° C., with specific antibodies, as indicated. Cells were washed, incubated for 1 h at room temperature with appropriately-labeled secondary antibodies, and visualized by fluorescence microscopy. For midbrain culture experiments, DAT-specific immunoreactivity (pixels), and cytoplasmic parkin and cyclin E immunoreactivity (mean pixel density), were quantified in triplicate, across nine fields of view, at 20× using Image software (Scion).
SiRNAs were synthesized by Dharmacon Research, Inc., and duplexes were formed as per the manufacturer's instructions (parkin siRNA sequence: 5′ […] […]dTdT 3′; DAT siRNA sequence: 5′ […]dTdT 3′; SERT siRNA sequence: 5′[…]dTdT 3′). Cortical cultures were transfected using Lipofectamine 2000 reagent (Life Technologies); primary midbrain cultures were transfected using Transmessenger (Qiagen), as described (Krichevsky and Kosik, RNAi functions in cultured mammalian neurons. Proc. Natl. Acad. Sci. USA, 99:11926-929, 2002).
Embryonic day 13.5 (E13.5) primary culture midbrain dopamine neurons, identified by immunohistochemical staining for the dopamine transporter (DAT) (Nirenberg et al., The dopamine transporter is localized to dendritic and axonal plasma membranes of nigrostriatal dopaminergic neurons. J. Neurosci., 16:436-47, 1996), were transfected with parkin siRNA (FIG. 7, panels F-J and P-T) or control siRNA (FIG. 7, panels A-E and K-O), and subsequently exposed to kainate, as above.

[2] = system: primary cortical cultures; experiment: Parkin siRNA in kainate-treated primary cortical cultures, Western blot; assay type: cell-based, mice; details: 25 nM siRNA
Experimental: as §1
SiRNAs were synthesized by Dharmacon Research, Inc., and duplexes were formed as per the manufacturer's instructions (parkin siRNA sequence: 5′ […] […]dTdT 3′; DAT siRNA sequence: 5′ […]dTdT 3′; SERT siRNA sequence: 5′[…]dTdT 3′). […]

DJ-1 deficient ES cells = assay type: cell-based
Experimental: DJ-1 has been hypothesized to function in the cellular response to oxidative stress. To investigate the role of DJ-1 in the oxidative stress response in vivo, DJ-1-deficient homozygous mutant (‘knockout’) cells and DJ-1 heterozygote (‘control’) ES cell clones were analyzed for cell viability in the context of increasing concentrations of H2O2. Heterozygous cells were used as controls because the ‘knockout’ subclones were derived from these. Cell viability was initially determined by MTT assay in triplicate (Fezoui et al. 2000). […] The increase in AV-positive cells implicated an apoptotic mechanism of cell death (FIG. 14F).
(§2) In Vivo Assays. ES cells plated in 96-well format (2.3×10^4 cells/well) were treated for 15 hours with H2O2 in ES media deficient in β-mercaptoethanol (Abeliovich et al. 2000). Cell viability (as a percent of untreated control) was determined by MTT assay in triplicate (Fezoui et al. 2000). Annexin V/Propidium Iodide (Molecular probes) staining was performed per the manufacturer's instructions. For dihydrorhodamine-123 staining (DHR, Molecular probes) (Walrand et al. 2003), cells were preincubated for 30 min with DHR (5 μM), washed with PBS, then treated with H2O2 in ES media deficient in β-mercaptoethanol for 15 min at 37° C. The FACS analysis was performed using a FACSTAR sorter (Becton Dickinson). Dopamine uptake assay was performed essentially as described (Farrer et al. 1998). Reported values represent specific uptake from which non-specific uptake, determined in the presence of mazindol, was subtracted, and normalized for protein content (BCA kit, Pierce).

citrate synthase (CS) = target: T1, citrate synthase (CS) (Sus scrofa, UniProt P00889); experiment: Suppression of heat-induced aggregation of citrate synthase (chaperone assay); assay type: biochemical; details: 0.8 μM CS, 43° C.
T1 construct: purchased Sigma
T1 sequence (P00889 28-464): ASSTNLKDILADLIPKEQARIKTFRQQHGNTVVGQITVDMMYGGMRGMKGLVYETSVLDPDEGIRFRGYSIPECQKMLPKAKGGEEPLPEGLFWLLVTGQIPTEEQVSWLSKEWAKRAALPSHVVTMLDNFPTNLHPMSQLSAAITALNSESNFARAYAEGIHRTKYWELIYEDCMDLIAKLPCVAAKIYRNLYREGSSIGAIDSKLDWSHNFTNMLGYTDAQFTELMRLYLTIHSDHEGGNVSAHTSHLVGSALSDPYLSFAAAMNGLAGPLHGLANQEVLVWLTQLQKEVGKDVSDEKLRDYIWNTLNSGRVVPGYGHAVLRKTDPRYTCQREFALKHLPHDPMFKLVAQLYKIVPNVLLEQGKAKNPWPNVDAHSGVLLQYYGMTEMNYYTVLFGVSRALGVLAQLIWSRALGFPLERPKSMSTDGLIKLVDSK
Experimental: To test the redox regulation of DJ-1, the inventors assayed chaperone activity in the CS aggregation assay in the presence or absence of the reducing agent DTT. […] (FIG. 22D). […] To further test whether redox regulation might govern DJ-1 chaperone activity, reactivation studies using reduced DJ-1 were performed. DTT-reduced DJ-1 was incubated with H2O2 (10 mM in aggregation buffer for 10 min at 4° C. followed by dialysis against aggregation buffer for 2 h), and subsequently chaperone activity was measured in the CS thermal aggregation assay. […] This was not an indirect effect of residual H2O2 on CS aggregation, as H2O2 treatment of CS increased aggregation (unpublished data).
CS aggregation was performed in 40 mM HEPES (pH 7.8), 20 mM potassium hydroxinde, 50 mM potassium chloride, and 10 mM ammonium sulfate, and monitored in a thermostat-controlled fluorescence spectrophotometer with excitation and emission wavelengths at 500 nm and slit widths at 2.5 nm. Insulin aggregation was performed as described (Giasson et al. 2000). CS, insulin, RNase A, and GST were obtained from Sigma; human Hsp27 was obtained from Stressgen.

DJ-1-deficient ES cells = experiment: Rescue of DJ-1-deficient ES cells from H2O2, MTT viability; assay type: cell-based, murine; details: transient transfection, 10 μM H2O2 for 15 h
Experimental: (A) DJ-1 cysteine-to-alanine mutants C106A, C53A, and a triple mutant that harbors mutations at all three cysteines in DJ-1 (C106A/C53A/C46A), as well as L166P, were tested for in vitro chaperone activity by CS aggregation suppression assay. (B) Self-association of DJ-1 cysteine mutants. Murine neuroblastoma CAD cells were transiently cotransfected with Flag-tagged human DJ-1 vectors (either WT or mutant) along with WT YFP-tagged human DJ-1. Lysates were immunoprecipitated with anti-Flag antibodies and probed by Western blotting with an antibody specific for human DJ-1. […] Lysates represent 20% of the input for the immunoprecipitate; Flag-DJ-1 migrates at 22 kDa, and YFP-DJ-1 migrates at 50 kDa. (C) DJ-1-deficient ES cells were transiently transfected with vector alone, WT DJ-1, or DJ-1 cysteine mutants, and exposed to 10 μM H2O2 for 15 h followed by MTT assay. The viability of the cells in the absence of drug treatment was not altered by the expression of WT or mutant DJ-1). Data are shown as the mean±SEM and were analyzed by ANOVA with Fisher's post-hoc test. *p<0.05.
To confirm that altered sensitivity to oxidative stress is a consequence of the loss of DJ-1, ‘rescue’ experiments by overexpressing wild-type or mutant human DJ-1 in ‘knockout’ ES cells were performed. Plasmids encoding human wild-type DJ-1, PD-associated L166P mutant DJ-1, or vector alone, were transiently transfected into DJ-1 deficient clones, and these were subsequently assayed for sensitivity to H2O2 using the MTT viability assay.
as §2

“5′ UUCCAAACCGG AUGAGUGGdTdT 3′ (UUCCAAACCGGAUGAGUGGTT; siRNA; sugars from the 5' end r19 d2, backbone not given here) [parkin siRNA, parkin-specific short interfering RNA synthesized by Dharmacon]” was tested, and the “dopamine neuron sensitivity to MPP+” value ([1]; MPP+ 10 μM) was “failed to alter dopamine neuron sensitivity”, the “cyclin E or DAT immunoreactivity” value ([1]; absence of kainate) was “failed to alter cyclin E or DAT immunoreactivity” and the “sensitization of DAT-negative neurons to kainate relative to DAT-positive population” value ([1]; cyclin E induction and apoptosis) was “significantly lesser extent”. For the same molecule, the “apoptosis of dopamine neurons” value ([1]; kainate) was “increased apoptosis”, the “cyclin E accumulation in dopamine neurons” value ([1]; kainate) was “increased accumulation of cyclin E” and the DAT immunoreactivity ([1]; presence of kainate) was “decreased DAT immunoreactivity”. The “cleaved-PARP (apoptosis marker)” value [2] was “accumulation of cleaved poly (ADP-ribose) polymerase”, the “cyclin E accumulation” value [2] was “increased accumulation of cyclin E” and the parkin protein expression [2] was “significantly reduced parkin expression”.

OO [H2O2] was tested, and the “sensitivity of DJ-1 deficient cells to toxin relative to heterozygous cells” value (DJ-1 deficient ES cells; 15 h exposure, MTT) was “significantly greater toxicity”.

[Cl][Cu][Cl] [copper] was tested, and the “sensitivity of DJ-1 deficient cells to toxin relative to heterozygous cells” value (DJ-1 deficient ES cells; 15 h exposure, MTT) was “sensitized”.

With C[C@@H]1C[C@@H]([C@H](O)CC2CC(=O)NC(=O)C2)C(=O)[C@@H](C)C1 [cycloheximide] the “sensitivity of DJ-1 deficient cells to toxin relative to heterozygous cells” value (DJ-1 deficient ES cells; 15 h exposure, MTT) was “did not observe altered sensitivity”.

For CC(=O)N[C@@H](CSC(=O)[C@]1([C@@H](O)C(C)C)NC(=O)[C@H](C)[C@@H]1O)C(=O)O [lactacystin], the “sensitivity of DJ-1 deficient cells to toxin relative to heterozygous cells” value (DJ-1 deficient ES cells) was “sensitized”.

CN[C@@H]1C[C@H]2O[C@@](C)([C@@H]1OC)n1c3ccccc3c3c4c(c5c6ccccc6n2c5c31)C(=O)NC4 [staurosporine] was tested, and the “sensitivity of DJ-1 deficient cells to toxin relative to heterozygous cells” value (DJ-1 deficient ES cells; 15 h exposure, MTT) was “did not observe altered sensitivity”.

With tunicamycin the “sensitivity of DJ-1 deficient cells to toxin relative to heterozygous cells” value (DJ-1 deficient ES cells; 15 h exposure, MTT) was “did not observe altered sensitivity”.

B1: C106A: DJ-1 cysteine-to-alanine mutant at cysteine 106 (protein, UniProt Q99497 1-189, looked up, variant C106A)
chain: MASKRALVILAKGAEEMETVIPVDVMRRAGIKVTVAGLAGKDPVQCSRDVVICPDASLEDAKKEGPYDVVVLPGGNLGAQNLSESAAVKEILKEQENRKGLIAAIAAGPTALLAHEIGFGSKVTTHPLAKDKMMNGGHYTYSENRVEKDGLILTSRGPGTSFEFALAIVEALNGKEVAAQVKAPLVLKD
With B1 the “suppression of heat-induced aggregation of CS (chaperone activity)” value (citrate synthase (CS)) was “does not alter the basal activity” and the “viability of DJ-1 knockout cells in the presence of H2O2” value (DJ-1-deficient ES cells) was “robustly rescued”.

B2: C106A/C53A/C46A: triple mutant that harbors mutations at all three cysteines in DJ-1 (protein, UniProt Q99497 1-189, looked up, variant C106A C53A C46A)
chain: B1 chain with C46A, C53A
In the case of B2, the “suppression of heat-induced aggregation of CS (chaperone activity)” value (citrate synthase (CS)) is reported as “loss of chaperone function” and the “viability of DJ-1 knockout cells in the presence of H2O2” value (DJ-1-deficient ES cells) is reported as “failed to protect”.
